Consider three molecules from BigSolDB 2.1.

By solubility (mole fraction) is commonly meant solubility expressed as the solute's share of all molecules.

For this data set the following is noted: in n-octanol.

For the molecule `CCn1cc(C(=O)O)c(=O)c2cc(F)c(N3CCNCC3)cc21`, the solubility (mole fraction) (293.15 K) is 5.17e-05; the solubility (mole fraction) (298.15 K) was determined as 6.62e-05; the solubility (mole fraction) (303.15 K) stood at 8.54e-05; the solubility (mole fraction) (308.15 K) is 0.000108; the solubility (mole fraction) (313.15 K) turned out to be 0.00014; the solubility (mole fraction) (318.15 K) was determined as 0.000177. The same molecule returned a solubility (mole fraction) (323.15 K) of 0.000224, a solubility (mole fraction) (328.15 K) of 0.000284 and a solubility (mole fraction) (333.15 K) of 0.000352.

Consider `CCn1cc(C(=O)O)c(=O)c2cnc(N3CCNCC3)nc21`, for which the solubility (mole fraction) reads like this: (293.15 K) 9.14e-07; (298.15 K) 1.2e-06; (303.15 K) 1.57e-06; (308.15 K) 2.03e-06; (313.15 K) 2.6e-06; (318.15 K) 3.25e-06. This molecule had a solubility (mole fraction) (323.15 K) of 4.05e-06, a solubility (mole fraction) (328.15 K) of 4.97e-06 and a solubility (mole fraction) (333.15 K) of 6.02e-06.

As for `CCn1cc(C(=O)O)c(=O)c2cc(F)c(N3CCNC(C)C3)c(F)c21` (configuration not stated), the solubility (mole fraction) (293.15 K) stood at 2.17e-06; the solubility (mole fraction) (298.15 K) is 2.76e-06; the solubility (mole fraction) (303.15 K) came to 3.55e-06; the solubility (mole fraction) (308.15 K) stood at 4.58e-06; the solubility (mole fraction) (313.15 K) is 5.88e-06; the solubility (mole fraction) (318.15 K) was 7.63e-06. Further, the solubility (mole fraction) stood at 9.91e-06 (323.15 K), 1.3e-05 (328.15 K) and 1.68e-05 (333.15 K).
